Here are results for 1 compound from US20220387358A1, “CERAMIDE ANALOG SACLAC MODULATES SPHINGOLIPID LEVELS AND MCL-1 SPLICING TO INDUCE APOPTOSIS IN ACUTE MYELOID LEUKEMIA” (University of Virginia Patent Foundation, priority 2019, published 2022).

Structures are written as SMILES. Bounds are passed on as bounds.

The subject of series [1] is OCI-AML2 cells. As to the kind of experiment: Mitochondrial membrane potential (Muse MitoPotential Kit). Type of series: cell-based, human. The conditions noted are these: SACLAC 5 μM; time course. As to the method:
(§1) Apoptosis in cell lines was assessed after treating 2.5×10^5 cells per ml with drug or vehicle in a 48-well plate for the indicated time points and doses. Primary human AML cells were pre-incubated with SFEM for 48 hours before plating 2×10^5 cells in 24-well plates for the indicated times point and doses. Samples were stained using the Muse Annexin V & Dead Cell Kit (Millipore #MCH100105). Change in mitochondrial membrane potential in cell lines was measured with the Muse® MitoPotential Kit (#MCH100110, MilliporeSigma, Burlington, Mass., United States of America). Caspase activation was measured using the Muse® Caspase 3/7 Assay Kit (#MCH100108, MilliporeSigma, Burlington, Mass., United States of America). For rescue experiments, cells were plated at 2.5×10^4 well in a 96-well plate 24 hours after electroporation. Cells were treated with DMSO or […] for 48 hours and apoptosis was detected as stated above. All kits were used according to manufacturer's protocol. Cells were then analyzed using the Muse® Cell Analyzer (MilliporeSigma, Burlington, Massachusetts, United States of America) (35,36). Experiments included positive and negative controls for proper analysis.

The subject of series [2] is OCI-AML2 cells. As to the kind of experiment: Apoptosis by flow cytometry (Annexin V). The conditions noted are these: SACLAC 5 μM. The series is classed as cell-based, human. As to the method:
Apoptosis in cell lines was assessed after treating 2.5×10^5 cells per ml with drug or vehicle in a 48-well plate for the indicated time points and doses. Primary human AML cells were pre-incubated with SFEM for 48 hours before plating 2×10^5 cells in 24-well plates for the indicated times point and doses. Samples were stained using the Muse Annexin V & Dead Cell Kit (Millipore #MCH100105). Change in mitochondrial membrane potential in cell lines was measured with the Muse® MitoPotential Kit (#MCH100110, MilliporeSigma, Burlington, Mass., United States of America). Caspase activation was measured using the Muse® Caspase 3/7 Assay Kit (#MCH100108, MilliporeSigma, Burlington, Mass., United States of America). For rescue experiments, cells were plated at 2.5×10^4 well in a 96-well plate 24 hours after electroporation. Cells were treated with DMSO or SACLAC for 48 hours and apoptosis was detected as stated above. All kits were used according to manufacturer's protocol. Cells were then analyzed using the Muse® Cell Analyzer (MilliporeSigma, Burlington, Massachusetts, United States of America) (35,36). Experiments included positive and negative controls for proper analysis.
For orientation: A flow cytometer gives signals particle by particle.

The nature of series [3]: Pharmacokinetics, SACLAC in blood/serum by mass spectrometry. The series is classed as in vivo. As to the method:
More particularly, maximum tolerated dose of SACLAC was determined in NOD-scid IL2Rgamma^null (NSG) mice (n=5; Jackson Laboratories, Bar Harbor, Me., United States of America). Mice were injected with SACLAC reconstituted in β-HPCD (IV) daily for 5 days at a dose of 5 mg/kg body weight, respectively. For pharmacokinetics studies, Swiss Webster mice (n=3; Charles River Laboratories, Wilmington, Mass., United States of America) were injected with SACLAC dissolved in DMSO (40 mg/kg body weight, intraperitoneally) or dissolved in β-HPCD (5 mg/kg body weight, via tail-vein injection). Mice were euthanized and blood was harvested at time points ranging from 0 to 48 hours. Serum concentration of SACLAC was measured by mass spectrometry quantification relative to SACLAC standard using the method referenced above.

Series [4] has as its system two human AML xenograft mouse models. As to the kind of experiment: Leukemic burden across two human AML xenograft mouse models. The series is classed as in vivo. The text has this: To assess the efficacy of SACLAC in a transplantable human AML model, two cell line models were used. For the MV4-11 model, 2.5×10^6 luciferase and yellow fluorescent protein (YFP)-expressing MV4-11 cells in HBSS were introduced into 6- to 8-week-old female NSG mice via tail-vein injections. After 10-12 days, engraftment was confirmed using bioluminescence imaging with the IVIS Lumina LT Series III imaging system (PerkinElmer Inc., Waltham, Mass., United States of America). Mice were equally randomized into two groups of three mice and treated with vehicle or SACLAC at 5 mg/kg/day five times per week for 18 total injections. At the end of the treatment, animals were euthanized and peripheral blood was collected for flow cytometry analysis.
For the U937 model, 1×10^4 luciferase and tdTomato-expressing U937 cells in […] were introduced into 6- to 8-week-old female NSG mice via tail-vein injections. After six days, engraftment was confirmed as stated above. Mice were equally randomized into two groups of five mice and treated with vehicle or SACLAC at 5 mg/kg/day five times per week for 15 total injections. Animals were euthanized and bone marrow was collected for flow cytometry analysis.
In general terms: In xenograft studies the graft and the host belong to different species.

A further series relates to U937 AML cells. As to the kind of experiment: U937 AML xenograft model in NSG mice. The series is classed as in vivo. The conditions noted are these: 5 mg/kg tail-vein, five times per week, 15 injections. As for the experimental part:
MV4-11 AML cells expressing luciferase (luc2) and YFP (39) or U937 AML cells expressing luc2 and tdTomato (#72486, Addgene, Watertown, Mass., United States of America) were used to investigate the efficacy of SACLAC in NOD-scid […] (NSG) mice (Jackson Laboratories, Bar Harbor, Me., United States of America). Maximum tolerated dose and pharmacokinetic studies were also performed to determine safety and delivery of compound.
For the U937 model, 1×10^4 luciferase and tdTomato-expressing U937 cells in […] were introduced into 6- to 8-week-old female NSG mice via tail-vein injections. After six days, engraftment was confirmed as stated above. Mice were equally randomized into two groups of five mice and treated with vehicle or SACLAC at 5 mg/kg/day five times per week for 15 total injections. […]
Red blood cells (RBC) were lysed with RBC Lysis Buffer (#420301, BioLegend, San Diego, Calif., United States of America) followed by cell surface staining with anti-human CD45 antibodies (#304014, clone HI30, BioLegend, San Diego, Calif., United States of America) and 7AAD (#420404, BioLegend, San Diego, Calif., United States of America) to detect viable human white blood cells (WBC) using an LSR II flow cytometer and BD FACS Diva software. […] Percentage of YFP, tdTomato or hCD45 positive cells was determined in FlowJo software (Becton Dickinson, Franklin Lakes, N.J., United States of America). […]

The subject of series [5] is primary AML patient samples. Description: Apoptosis by flow cytometry (Annexin V). The conditions noted are these: seven patient samples; 48-hour treatment. Type of series: cell-based, human. As for the experimental part:
as §1

For `CCCCCCCCCCCCCCC[C@@H](O)[C@H](CO)NC(=O)CCl` [SACLAC, N-[(2S,3R)-1,3-dihydroxyoctadecan-2-yl]2-chloroacetamide], the “loss of mitochondrial membrane potential” value with OCI-AML2 cells [1] is given as “occurred in parallel with positive staining for the apoptosis marker annexin V”. Moreover, the apoptosis is given as 79% with OCI-AML2 cells [2] (12 hours) and “nearly all cells undergoing apoptosis” in the series on OCI-AML2 cells [2] (24 hours). Moreover, the “maximal serum concentration, IV vs IP delivery” value in series [3] (5 mg/kg i.v. in β-HPCD vs 40 mg/kg i.p. in DMSO) was “higher maximal serum concentration than IP delivery”. Moreover, in series [3] (40 mg/kg i.p. in DMSO or 5 mg/kg i.v. in β-HPCD), the “half-life in the blood” value is recorded as “short half-life”. Further, in series [3] (after changing administration route and vehicle), the “peak serum SACLAC levels” value is given as “less than 1 μM”. Moreover, the “uptake following i.p. injection” value in series [3] (mouse, in vivo, ip) is recorded as “suboptimal uptake”. Also, the “reduction in leukemic burden” value in series [4] is listed as 37 to 75%. The “reduction in leukemic cells in the bone marrow” value in the series on U937 AML cells is “up to 50%”. Further, the “apoptosis reached by more than half the samples” value in series [5] is at least 80%.
